In patent US20260256751A1, “COMBINATION OF BETA-2-ADRENERGIC RECEPTOR AGONISTS AND GLP-1 RECEPTOR AGONISTS FOR USE IN TREATING HYPERGLYCAEMIA” (ATROGI AB, priority 2023, published 2026):

Columns and labels:
[1] = tested on: differentiated L6-myotubes; test: Glucose uptake screen (Biological example 1 of WO 2019/053427); type: cell-based; details: compound at 10 μM, activity relative to isoproterenol at 10 μM, read-out: Biological example 1 of WO 2019/053427 (GU)
Procedure, shortened: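 Uptake was read out as ^3H-2-deoxyglucose (50 nM, 10 min) radioactivity in NaOH lysates. Beforehand, overnight-starved, differentiated L6 myotubes received compound at 1×10^−5 M with ICI-118551 present for 1 h 40 min, followed by fresh agonist for a further 20 min in glucose-free medium.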

[2] = tested on: differentiated L6-myotubes; test: cAMP production relative to isoprenaline (Biological example 2 of WO 2019/053427); type: cell-based; details: 0.25 h, compound at 10 μM, activity relative to isoproterenol at 10 μM
Procedure, shortened: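 Values are cAMP levels relative to isoprenaline at equal concentration (final 1×10^−5 M for both). Stimulation lasted 15 min in differentiated L6 myotubes, using HBSS buffer (pH 7.4) containing 1 mM IBMX, 5 mM HEPES and 1% BSA.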

| Compound | Emax at 10 µM [1] | Emax at 10 µM [2] |
| --- | --- | --- |
| CN(C)S(=O)(=O)[C@H]1CC[C@@H](CC(C)(C)NC[C@H](O)c2cncc(F)c2)CC1 [Compound 471, (R)-2-{1,1-dimethyl-2-[(1s,4S)-4-(dimethylaminosulfonyl)cyclohexyl]ethylamino}-1-(5-fluoro-3-pyridyl)-1-ethanol] | > 75% | 50 to 75% |
| CS(=O)(=O)N(Cc1ccccc1)c1ccc(CC23CCC([C@@H](O)c4cccc(F)c4)(CC2)N3)cc1 [Compound 472, (S)-[4-({p-[(benzyl)-N-mesylamino]phenyl}methyl)-7-azabicyclo[2.2.1]hept-1-yl](m-fluorophenyl)methanol] | 25 to 50% | < 25% |
| CS(=O)(=O)N(Cc1ccccc1)c1ccc(CC23CCC([C@H](O)c4cccc(F)c4)(CC2)N3)cc1 [Compound 473, (R)-[4-({p-[(benzyl)-N-mesylamino]phenyl}methyl)-7-azabicyclo[2.2.1]hept-1-yl](m-fluorophenyl)methanol] | 25 to 50% | < 25% |
| CS(=O)(=O)Nc1ccc(CC23CCC([C@@H](O)c4cccc(F)c4)(CC2)N3)cc1 [Compound 474, (S)-(m-fluorophenyl)(4-{[p-(mesylamino)phenyl]methyl}-7-azabicyclo[2.2.1]hept-1-yl)methanol] | 50 to 75% | < 25% |
| CS(=O)(=O)Nc1ccc(CC23CCC([C@H](O)c4cccc(F)c4)(CC2)N3)cc1 [Compound 475, (R)-(m-fluorophenyl)(4-{[p-(mesylamino)phenyl]methyl}-7-azabicyclo[2.2.1]hept-1-yl)methanol] | 50 to 75% | < 25% |
| CNS(=O)(=O)[C@H]1CC[C@H](CC(C)(C)NC[C@H](O)c2cccc(F)c2)CC1 [Compound 476, (R)-2-{1,1-dimethyl-2-[(1r,4R)-4-(methylaminosulfonyl)cyclohexyl]ethylamino}-1-(m-fluorophenyl)-1-ethanol] | > 75% | 25 to 50% |
| CNS(=O)(=O)[C@H]1CC[C@@H](CC(C)(C)NC[C@H](O)c2cccc(F)c2)CC1 [Compound 477, (R)-2-{1,1-dimethyl-2-[(1s,4S)-4-(methylaminosulfonyl)cyclohexyl]ethylamino}-1-(m-fluorophenyl)-1-ethanol] | 50 to 75% | < 25% |
| CNS(=O)(=O)[C@H]1CC[C@H](CC(C)(C)NC[C@H](O)c2cncc(F)c2)CC1 [Compound 478, (R)-2-{1,1-dimethyl-2-[(1r,4R)-4-(methylaminosulfonyl)cyclohexyl]ethylamino}-1-(5-fluoro-3-pyridyl)-1-ethanol] | 25 to 50% | < 25% |
| CC(=O)N(Cc1ccccc1)[C@H]1CC[C@@H](C[C@@H]2CC[C@H]([C@H](O)c3cccc(F)c3)N2)CC1 [Compound 479, N-[(1R,4s)-4-({(2S,5R)-5-[(S)-(m-fluorophenyl)hydroxymethyl]-2-pyrrolidinyl}methyl)cyclohexyl]-N-benzylacetamide] | < 25% | < 25% |
| CC(=O)N(Cc1ccccc1)[C@H]1CC[C@H](C[C@@H]2CC[C@H]([C@@H](O)c3cccc(F)c3)N2)CC1 [Compound 481, N-[(1S,4r)-4-({(2S,5R)-5-[(S)-(m-fluorophenyl)hydroxymethyl]-2-pyrrolidinyl}methyl)cyclohexyl]-N-benzylacetamide] | < 25% | < 25% |
| CC(=O)N(Cc1ccccc1)[C@H]1CC[C@H](C[C@@H]2CC[C@H]([C@H](O)c3cccc(F)c3)N2)CC1 [Compound 482, N-[(1S,4r)-4-({(2S,5R)-5-[(R)-(m-fluorophenyl)hydroxymethyl]-2-pyrrolidinyl}methyl)cyclohexyl]-N-benzylacetamide] | < 25% | < 25% |
| CC(=O)N[C@H]1CC[C@@H](C[C@@H]2CC[C@H]([C@@H](O)c3cccc(F)c3)N2)CC1 [Compound 483, N-[(1R,4s)-4-({(2S,5R)-5-[(S)-(m-fluorophenyl)hydroxymethyl]-2-pyrrolidinyl}methyl)cyclohexyl]acetamide] | < 25% | < 25% |
| CC(=O)N[C@H]1CC[C@@H](C[C@@H]2CC[C@H]([C@H](O)c3cccc(F)c3)N2)CC1 [Compound 484, N-[(1R,4s)-4-({(2S,5R)-5-[(R)-(m-fluorophenyl)hydroxymethyl]-2-pyrrolidinyl}methyl)cyclohexyl]acetamide] | 50 to 75% | < 25% |
| CC(=O)N[C@H]1CC[C@H](C[C@@H]2CC[C@H]([C@H](O)c3cccc(F)c3)N2)CC1 [Compound 485, N-[(1S,4r)-4-({(2S,5R)-5-[(R)-(m-fluorophenyl)hydroxymethyl]-2-pyrrolidinyl}methyl)cyclohexyl]acetamide] | 50 to 75% | < 25% |
| CC(=O)N[C@H]1CC[C@H](C[C@@H]2CC[C@H]([C@@H](O)c3cccc(F)c3)N2)CC1 [Compound 486, N-[(1S,4r)-4-({(2S,5R)-5-[(S)-(m-fluorophenyl)hydroxymethyl]-2-pyrrolidinyl}methyl)cyclohexyl]acetamide] | 50 to 75% | < 25% |
| O[C@@H](c1cccc(F)c1)C12CCC(COCc3ccc(OC(F)(F)F)cc3)(CC1)N2 [Compound 487, (S)-(m-fluorophenyl)(4-{[(p-trifluoromethoxyphenyl)methoxy]methyl}-7-azabicylco[2.2.1]hept-1-yl)methanol] | < 25% | < 25% |
| O[C@H](c1cccc(F)c1)C12CCC(COCc3ccc(OC(F)(F)F)cc3)(CC1)N2 [Compound 488, (R)-(m-fluorophenyl)(4-{[(p-trifluoromethoxyphenyl)methoxy]methyl}-7-azabicyclo[2.2.1]hept-1-yl)methanol] | < 25% | < 25% |
| O[C@@H](c1cncc(F)c1)C12CCC(COCc3ccc(OC(F)(F)F)cc3)(CC1)N2 [Compound 489, (S)-(5-fluoro-3-pyridyl)(4-{[(p-trifluoromethoxyphenyl)methoxy]methyl}-7-azabicyclo[2.2.1]hept-1-yl)methanol] | < 25% | < 25% |
| O[C@H](c1cncc(F)c1)C12CCC(COCc3ccc(OC(F)(F)F)cc3)(CC1)N2 [Compound 490, (R)-(5-fluoro-3-pyridyl)(4-{[(p-trifluoromethoxyphenyl)methoxy]methyl}-7-azabicyclo[2.2.1]hept-1-yl)methanol] | 50 to 75% | < 25% |
| CC(=O)N(C)[C@H]1CC[C@H](CC(C)(C)NC[C@H](O)c2cccc(F)c2)CC1 [Compound 491, N-[(1R,4r)-4-{2-[(R)-2-(m-fluorophenyl)-2-hydroxyethylamino]-2-methylpropyl}cyclohexyl]-N-methylacetamide] | > 75% | < 25% |
| CC(=O)N(C)[C@H]1CC[C@@H](CC(C)(C)NC[C@H](O)c2cccc(F)c2)CC1 [Compound 492, N-[(1S,4s)-4-{2-[(R)-2-(m-fluorophenyl)-2-hydroxyethylamino]-2-methylpropyl}cyclohexyl]-N-methylacetamide] | 25 to 50% | < 25% |
| CC(C)(C[C@H]1CC[C@@H](NS(=O)(=O)C(F)(F)F)CC1)NC[C@H](O)c1cccc(F)c1 [Compound 493, (R)-2-{1,1-dimethyl-2-[(1s,4S)-4-(trifluoromesylamino)cyclohexyl]ethylamino}-1-(m-fluorophenyl)-1-ethanol] | 25 to 50% | < 25% |
| CC(C)(C[C@H]1CC[C@@H](NS(=O)(=O)C2CC2)CC1)NC[C@H](O)c1cccc(F)c1 [Compound 494, (R)-2-{1,1-dimethyl-2-[(1s,4S)-4-(cyclopropylsuflonylamino)cyclohexyl]ethylamino}-1-(m-fluorophenyl)-1-ethanol] | 25 to 50% | < 25% |
| CNS(=O)(=O)[C@H]1CC[C@@H](CC(C)(C)NC[C@H](O)c2cncc(F)c2)CC1 [Compound 495, (R)-2-{1,1-dimethyl-2-[(1s,4S)-4-(methylaminosulfonyl)cyclohexyl]ethylamino}-1-(5-fluoro-3-pyridyl)-1-ethanol] | 50 to 75% | < 25% |
| CC(C)(C[C@H]1CC[C@H](NS(=O)(=O)C2CC2)CC1)NC[C@H](O)c1cccc(F)c1 [Compound 496, (R)-2-{1,1-dimethyl-2-[(1r,4R)-4-(cyclopropylsulfonylamino)cyclohexyl]ethylamino}-1-(m-fluorophenyl)-1-ethanol] | 50 to 75% | < 25% |
| CCCS(=O)(=O)N[C@H]1CC[C@@H](CC(C)(C)NC[C@H](O)c2cccc(F)c2)CC1 [Compound 497, (R)-2-{1,1-dimethyl-2-[(1s,4S)-4-(propylsulfonylamino)cyclohexyl]ethylamino}-1-(m-fluorophenyl)-1-ethanol] | 50 to 75% | < 25% |
| CN([C@H]1CC[C@@H](CC(C)(C)NC[C@H](O)c2cccc(F)c2)CC1)S(C)(=O)=O [Compound 498, (R)-2-{1,1-dimethyl-2-[(1s,4S)-4-(N-mesyl-N-methylamino)cyclohexyl]ethylamino}-1-(m-fluorophenyl)-1-ethanol] | 25 to 50% | < 25% |
| CN([C@H]1CC[C@H](CC(C)(C)NC[C@H](O)c2cccc(F)c2)CC1)S(C)(=O)=O [Compound 499, (R)-2-{1,1-dimethyl-2-[(1r,4R)-4-(N-mesyl-N-methylamino)cyclohexyl]ethylamino}-1-(m-fluorophenyl)-1-ethanol] | 25 to 50% | < 25% |
| O[C@@H](c1cccc(F)c1)C12CCC(Cc3ccc(OC(F)(F)F)cc3)(CC1)N2 [Compound 500] | < 25% | < 25% |
